Data: US20110046179A1, “NOVEL PIPERIDINE DERIVATIVES AND THEIR USE AS MONOAMINE NEUROTRANSMITTER RE-UPTAKE INHIBITORS” (priority 2006, published 2011)
Counter-ions that a name gives are not always drawn.

Key:
[1] = target: T1, serotonine (5-HT) reuptake in synaptosomes (Rattus norvegicus, UniProt P31652); experiment: Inhibition of 5-HT reuptake in synaptosomes; type: biochemical; conditions: 3H-5-HT, read-out: 5-HT-uptake IC50
T1 construct: in synaptosomes as described in WO 97/16451; from tissue; host or cells: synaptosomes (brain tissue)
T1 sequence (P31652 whole entry): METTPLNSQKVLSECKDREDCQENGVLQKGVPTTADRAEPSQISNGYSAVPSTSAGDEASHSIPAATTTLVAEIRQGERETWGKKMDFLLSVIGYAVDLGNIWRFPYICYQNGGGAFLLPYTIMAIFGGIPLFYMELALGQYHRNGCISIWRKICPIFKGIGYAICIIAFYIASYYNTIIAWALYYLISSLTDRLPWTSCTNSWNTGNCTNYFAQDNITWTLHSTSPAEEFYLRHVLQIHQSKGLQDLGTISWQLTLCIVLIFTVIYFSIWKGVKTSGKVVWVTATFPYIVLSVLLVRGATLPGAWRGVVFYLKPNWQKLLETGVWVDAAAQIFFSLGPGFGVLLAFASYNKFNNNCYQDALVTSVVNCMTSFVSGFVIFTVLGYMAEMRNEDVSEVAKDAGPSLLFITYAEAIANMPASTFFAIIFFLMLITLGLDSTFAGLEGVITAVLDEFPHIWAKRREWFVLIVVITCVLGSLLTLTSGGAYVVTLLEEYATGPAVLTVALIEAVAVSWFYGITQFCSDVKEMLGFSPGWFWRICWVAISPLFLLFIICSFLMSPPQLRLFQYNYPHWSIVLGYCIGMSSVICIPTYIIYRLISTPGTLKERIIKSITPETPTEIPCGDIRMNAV
Description: (§1) A number of compounds were tested for their ability to inhibit the reuptake of the monoamine neurotransmitters dopamine (DA) noradrenaline (NA) and serotonine (5-HT) in synaptosomes as described in WO 97/16451.
(§2) The test values are given as IC50 (the concentration (μM) of the test substance which inhibits the specific binding of ^3H-DA, ^3H-NA, or ^3H-5-HT by 50%).

[2] = target: T2, dopamine (DA) reuptake in synaptosomes (Rattus norvegicus, UniProt P23977); experiment: Inhibition of DA reuptake in synaptosomes; type: biochemical; conditions: 3H-DA, read-out: DA-uptake IC50
T2 construct: in synaptosomes as described in WO 97/16451; from tissue; host or cells: synaptosomes (brain tissue)
T2 sequence (P23977 whole entry): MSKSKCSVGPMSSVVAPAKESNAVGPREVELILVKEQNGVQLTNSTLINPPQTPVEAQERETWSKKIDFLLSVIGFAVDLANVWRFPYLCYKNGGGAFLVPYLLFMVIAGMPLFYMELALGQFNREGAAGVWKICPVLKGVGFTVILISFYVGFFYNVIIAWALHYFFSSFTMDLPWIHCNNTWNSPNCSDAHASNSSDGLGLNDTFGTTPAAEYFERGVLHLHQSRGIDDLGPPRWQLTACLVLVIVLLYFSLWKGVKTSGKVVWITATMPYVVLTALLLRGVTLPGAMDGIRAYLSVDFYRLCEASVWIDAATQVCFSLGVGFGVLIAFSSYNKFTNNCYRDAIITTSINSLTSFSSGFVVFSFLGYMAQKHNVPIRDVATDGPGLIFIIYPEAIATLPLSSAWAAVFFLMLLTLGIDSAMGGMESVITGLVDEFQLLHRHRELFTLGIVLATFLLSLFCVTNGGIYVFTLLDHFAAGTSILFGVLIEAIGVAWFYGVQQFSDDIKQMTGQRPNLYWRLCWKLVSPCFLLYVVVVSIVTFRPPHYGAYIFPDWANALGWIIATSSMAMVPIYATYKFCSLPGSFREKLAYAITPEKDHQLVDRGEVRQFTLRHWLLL
Description: as §1, §2

[3] = target: T3, noradrenaline (NA) reuptake in synaptosomes (Rattus norvegicus); experiment: Inhibition of NA reuptake in synaptosomes; type: biochemical; conditions: 3H-NA, read-out: NA-uptake IC50
T3 construct: in synaptosomes as described in WO 97/16451; from tissue; host or cells: synaptosomes (brain tissue)
T3 sequence (Q63380 1-617): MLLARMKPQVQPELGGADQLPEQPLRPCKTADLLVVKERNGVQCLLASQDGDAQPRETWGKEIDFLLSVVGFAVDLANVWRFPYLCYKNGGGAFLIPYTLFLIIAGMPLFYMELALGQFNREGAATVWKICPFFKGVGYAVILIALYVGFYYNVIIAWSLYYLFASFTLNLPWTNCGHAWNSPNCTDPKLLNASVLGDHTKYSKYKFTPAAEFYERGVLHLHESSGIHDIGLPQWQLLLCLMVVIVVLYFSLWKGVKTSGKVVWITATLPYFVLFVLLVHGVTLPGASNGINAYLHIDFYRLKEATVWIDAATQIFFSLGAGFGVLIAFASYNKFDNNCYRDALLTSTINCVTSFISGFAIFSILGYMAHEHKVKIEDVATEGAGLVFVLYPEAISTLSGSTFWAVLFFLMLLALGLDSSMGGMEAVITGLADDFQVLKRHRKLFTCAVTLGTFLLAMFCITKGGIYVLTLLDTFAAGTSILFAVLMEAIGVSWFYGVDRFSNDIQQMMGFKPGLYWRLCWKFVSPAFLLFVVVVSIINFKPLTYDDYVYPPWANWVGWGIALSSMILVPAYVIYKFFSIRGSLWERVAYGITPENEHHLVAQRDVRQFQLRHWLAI
Description: as §1, §2

**Q.** For `CCOCC1(Cc2ccc(Cl)c(Cl)c2)CCNCC1.O=C(O)/C=C/C(=O)O`, which melting point is on record?
**A.** The melting point was 147.4 to 150.6 °C.

**Q.** Which melting point does the source give for `Clc1ccc(CC2(COc3ccccc3)CCNCC2)cc1Cl` (as salt: fumarate) [Compound 5ac, 4-(3,4-Dichloro-benzyl)-4-phenoxymethyl-piperidine] here?
**A.** The melting point was 165 to 167 °C.

**Q.** With `Clc1ccc(CC2(COc3ccc(Cl)c(Cl)c3)CCNCC2)cc1Cl` (as salt: fumarate) [Compound 5ae, 4-(3,4-Dichloro-benzyl)-4-(3,4-dichloro-phenoxymethyl)-piperidine] as the compound, how does the melting point read?
**A.** Its melting point is 166.3 to 168.9 °C.

**Q.** For `COCC1(Cc2cccc(Cl)c2Cl)CCNCC1` (as salt: fumarate) [Compound 5ba, 4-(2,3-Dichloro-benzyl)-4-methoxymethyl-piperidine], which melting point is on record?
**A.** Its melting point is 167 to 168.4 °C.

**Q.** With `COCC1(Cc2ccc3ccccc3c2)CCNCC1` (as salt: fumarate) [Compound 5da, 4-Methoxymethyl-4-naphthalen-2-ylmethyl-piperidine] as the compound, how does the melting point read?
**A.** The melting point was 139 to 142 °C.

**Q.** With `OCC1(Cc2ccc(Cl)c(Cl)c2)CCNCC1` [Compound 5a, [4-(3,4-Dichloro-benzyl)-piperidin-4-yl]-methanol] as the compound, how does the melting point read?
**A.** The melting point was 147.7 to 148.7 °C.

**Q.** What does the source list for `COCC1(Cc2ccc(Cl)c(Cl)c2)CCNCC1.O=C(O)/C=C/C(=O)O` [Compound 5aa, 4-(3,4-Dichloro-benzyl)-4-methoxymethyl-piperidine fumaric acid salt]?
**A.** IC50 [1]: 0.022 µM; IC50 [2]: 1.6 µM; IC50 [3]: 0.48 µM; melting point: 158.1 to 162.2 °C

**Q.** With `Clc1ccc(CC2(COc3cccc(Cl)c3Cl)CCNCC2)cc1Cl` [Compound 5ad, 4-(3,4-Dichloro-benzyl)-4-(2,3-dichloro-phenoxymethyl)-piperidine] as the compound, how does the melting point read?
**A.** Its melting point is 93.9 to 94.6 °C.

**Q.** What does the source list for `Clc1ccc(OCC2(Cc3ccccc3)CCNCC2)cc1Cl` [Compound 5ce, 4-Benzyl-4-(3,4-dichloro-phenoxymethyl)-piperidine]?
**A.** IC50 [1]: 0.00026 µM; IC50 [2]: 0.006 µM; IC50 [3]: 0.0048 µM; melting point: 77.7 to 79.3 °C
